Measured values published in US4812409A, “Hydrolyzable fluorescent substrates and analytical determinations using same” (Eastman Kodak Company, priority 1986, dated 1989).

Key:
diacetinase = test: Solution determination of an esterase enzyme; format: biochemical; conditions: pH 7.5, 25° C.; for Relative Fluorescence, Test Cell: ex 540 nm, em 620 nm
Experimental: A buffered solution of the substrate was prepared as follows. The substrate in N,N-dimethylformamide (16 mg/ml solvent) was added to 500 μl TRITON X-100 surfactant, and the resulting solution was added slowly to 25 ml potassium phosphate buffer (0.05 molar, pH 7.5) with stirring. Three milliliters of the buffered solution containing the substrate was placed in each of two quartz cells. To one cell was added 10 μl of a solution containing diacetinase (0.218 I.U. diacetinase per μl of potassium phosphate buffer, pH 7.5). The second cell was the Control. The relative fluorescence of each cell solution was measured at various times with a commercially available Perkin-Elmer fluorometer (excitation, 540 nm, maximum emission, 620 nm) at pH 7.5 and 25° C.

white blood cells = test: Determination of esterase activity in white blood cells; format: cell-based; conditions: pH 7.5, ex 540 nm, em 620 nm
Experimental: Leucocyte-rich layers (buffy coats) were purified from blood of healthy adult donors (taken in ACD tubes*) by adding 1.5 ml of Dextran T70 (6% in balanced salt solution), purchased from Pharmacia Fine Chemical (Piscataway, N.J., U.S.A.), to a 10 ml tube of blood. The tubes were allowed to set for one hour, then the plasma layer was transferred to sterile 15 ml centrifuge tubes, and the tubes were filled up to 7.5 ml with PBS solution (8.5 g sodium chloride in 0.05 molar potassium phosphate buffer, pH 7.5). The tubes were centrifuged at 1000 RPM for 10 minutes. The resulting cell pellet was resuspended in 10 ml lysing solution [0.83 g ammonium chloride, 0.1 g sodium bicarbonate and 0.003 g (ethylenedinitrilo)tetraacetic acid disodium salt in 100 ml of water, pH 7.2], and the tubes were allowed to set until the solution cleared. The tubes were again centrifuged, and the pellet was washed and resuspended in PBS. Cells were counted and adjusted to about 10^6 cells/ml.
Three milliliters of various concentrations of white blood cells in potassium phosphate buffer (0.05 molar, pH 7.5) were mixed with 10 μl of the substrate of Example 3 ([…]), and the relative fluorescence was measured at an excitation wavelength of 540 nm and a maximum emission wavelength of 620 nm.

[1] = system: carboxy esterase (Esterase, Type II); test: Determination of esterase activity in a dry analytical element; format: biochemical; conditions: filter paper element; 10 μl of 10 μg/ml esterase, pH 7.5; 1 minute incubation at 37° C.
Experimental: A strip of Whatman No. 2 filter paper (VWR Scientific Co., Rochester, N.Y., U.S.A.) was immersed in a solution of the substrate in methanol (3 mg in 0.5 ml). The paper was then allowed to dry at 37° C. for two hours.
A carboxy esterase (Esterase, Type II, 100 I.U./mg protein from Sigma Chemical Co., St. Louis, Mo., U.S.A.) was dissolved in 0.05 molar potassium phosphate buffer (pH 7.5), 10 μg/ml of buffer. A sample (10 μl) of this solution was applied to the filter paper and the sample came into contact with the substrate therein. A Control solution containing only buffer was applied to a separate area of the element. After 1 minute incubation at 37° C., the element was visually examined.

CC(=O)Oc1ccc2c3c(cccc13)C(=O)C=C2 [Example 3]
Relative Fluorescence, Test Cell (diacetinase; 0 min): 134
Relative Fluorescence, Test Cell (diacetinase; 0.5 min): 142
Relative Fluorescence, Test Cell (diacetinase; 1.0 min): 150
Relative Fluorescence, Test Cell (diacetinase; 3.0 min): 161
Relative Fluorescence, Test Cell (diacetinase; 5.0 min): 175
Relative Fluorescence, Test Cell (diacetinase; 7.0 min): 202
Relative Fluorescence, Test Cell (diacetinase; 10.0 min): 238
Relative Fluorescence, Test Cell (diacetinase; 15.0 min): 266
Generation of fluorescence in the cell containing the esterase enzyme (in words) (diacetinase): rapid generation of fluorescence
Relative Fluorescence (white blood cells; Sample 2, Cell Conc/μl 4.92 × 10^3, 0 Min): 28.2
Relative Fluorescence (white blood cells; Sample 2, Cell Conc/μl 4.92 × 10^3, 10 Min): 37.1
Relative Fluorescence (white blood cells; Sample 2, Cell Conc/μl 4.92 × 10^3, 15 Min): 42.6
Relative Fluorescence (white blood cells; Sample 2, Cell Conc/μl 4.92 × 10^3, 30 Min): 60.4
Relative Fluorescence (white blood cells; Sample 3, Cell Conc/μl 4.92 × 10^4, 0 Min): 23.2
Relative Fluorescence (white blood cells; Sample 3, Cell Conc/μl 4.92 × 10^4, 10 Min): 41.7
Relative Fluorescence (white blood cells; Sample 3, Cell Conc/μl 4.92 × 10^4, 15 Min): 48.8
Relative Fluorescence (white blood cells; Sample 3, Cell Conc/μl 4.92 × 10^4, 30 Min): 70.3
Relative Fluorescence (white blood cells; Sample 4, Cell Conc/μl 4.92 × 10^5, 0 Min): 25.6
Relative Fluorescence (white blood cells; Sample 4, Cell Conc/μl 4.92 × 10^5, 10 Min): 69.0
Relative Fluorescence (white blood cells; Sample 4, Cell Conc/μl 4.92 × 10^5, 15 Min): 85.0
Relative Fluorescence (white blood cells; Sample 4, Cell Conc/μl 4.92 × 10^5, 30 Min): 124.0
Colour of element area contacted with esterase enzyme (visual examination) [1]: bright orange
